Columns and labels:
Test in all cases: MIC for vancomycin
Type in all cases: cell-based
[1] = system: Enterococcus faecium VRE02; conditions: VRE02, read-out: MIC (minimum inhibitory concentration for vancomycin)
[2] = system: Enterococcus faecium VRE03; conditions: strain VRE03, read-out: MIC (minimum inhibitory concentration for vancomycin)
[3] = system: Enterococcus faecium VRE04; conditions: strain VRE04, read-out: MIC (minimum inhibitory concentration for vancomycin)
[4] = system: Enterococcus faecium VRE05; conditions: strain VRE05, read-out: MIC (minimum inhibitory concentration for vancomycin)
[5] = system: Enterococcus faecium VRE06; conditions: strain VRE06, read-out: MIC (minimum inhibitory concentration for vancomycin)
[6] = system: Enterococcus faecium VRE07; conditions: strain VRE07, read-out: MIC (minimum inhibitory concentration for vancomycin)

Measured: MIC

CN[C@H](CC(C)C)C(=O)N[C@H]1C(=O)N[C@@H](CC(N)=O)C(=O)N[C@H]2C(=O)N[C@H]3C(=O)N[C@H](C(=O)N[C@H](C(=O)O)c4cc(O)cc(O)c4-c4cc3ccc4O)[C@H](O)c3ccc(c(Cl)c3)Oc3cc2cc(c3O[C@@H]2O[C@H](CO)[C@@H](O)[C@H](O)[C@H]2O[C@H]2C[C@](C)(N)[C@H](O)[C@H](C)O2)Oc2ccc(cc2Cl)[C@H]1O [vancomycin]
> 256 µg/mL: all assays above

Source: patent publication US7018807B2, “Method and medium for detecting vancomycin-resistant enterococcus” (priority 1996, dated 2006)
